Experimental data as given in US20260335323A1, “CHIMERIC MOLECULE” (UCL Business Ltd, priority 2023, published 2026).

Test system: p62/SQSTM1
Experiment: Western blot, p62/SQSTM1 levels in PANC-1 cells
Format: cell-based, human
Excerpt: FIG. 2. BL-918 is a potent ULK1 agonist and autophagy inducer (A) Representative images of PANC-1 cells stably expressing the mCherry-EGFP-LC3 tandem reporter treated with ULK1 agonists. Nuclei stained with Hoechst 33342, autophagosomes are shown in the EGFP channel and autolysosomes in the mCherry channel. Fold change in the number of autophagosomes (B) and autolysosomes (C) puncta in ULK1 agonist treated cells. (D) Western blot of PANC-1 cells treated with DMSO, bafilomycin and ULK1 agonists±bafilomycin; probed for p-ULK1 (S317), ULK1, p62, b-actin, LC3-I and LC3-II. Quantifications of western blot for changes in the ratio of p-ULK1 (S317):ULK1 (E), p62 (F) and LC31:LC3II (G). All data shown are mean±SEM, n=3, *p<0.05, ** p<0.01, one-way ANOVA with Dunnett's multiple comparisons test.
FIG. 4. ULKTACs retain ULK1 agonist activity and subsequent induction of autophagy (A) Western blot of PANC-1 cells treated with ULKTACs±bafilomycin, probed for p-ULK1 (S317), ULK1, p62, b-Actin, LC31 and LC3II. Quantifications of (A) for the pULK1:ULK1 ratio (B) LC3I:LC3II ratio (C) and changes in p62 (D). (E) Representative images of PANC-1 cells stably expressing the mCherry-EGFP-LC3 tandem reporter treated with ULKTACs w/or w/o bafilomycin. Nuclei stained with Hoechst 33342, autophagosomes are shown in the EGFP channel and autolysosomes in the mCherry channel. […]
Cells were homogenised in protein lysis buffer consisting of 0.1 M Tris pH 8.0, 0.1 M NaCl, 5% glycerol, IGEPAL® CA-630 (#18896. Sigma-Aldrich) and 5 mM EDTA, 0.1 M N-ethyl maleimide (ThermoFisher, #23030) and protease inhibitor (Cell Signalling Technologies, #5871). Protein concentrations were determined using the BCA assay to ensure equal loading. […]
Membranes were then incubated with horseradish peroxidase (HRP)-conjugated secondary antibodies (Rabbit #7074 and Mouse #7076) purchased from Cell Signalling Technologies for 1 hour and the HRP signal was detected using EZ-ECL Enhanced Chemiluminescence Detection Kit for HRP (#20-500-500, Sartorius), and imaged with an Alliance Q9 Advanced (UVITec). […]

SMILES	p62/SQSTM1 levels
O=C(Nc1ccc(F)cc1F)[C@H](NC(=S)Nc1cc(C(F)(F)F)cc(C(F)(F)F)c1)c1ccccc1 [BL-918, reference compound]	reduction in p62/SQSTM1 levels
O=C(Nc1cc(C(F)(F)F)cc(C(F)(F)F)c1)N[C@@H](C(=O)Nc1ccc(F)cc1F)c1ccc(OCc2cn(CCOCCOCCNC(=O)C(=O)c3c(-c4ccccc4)[nH]c4ccccc34)nn2)cc1 [NZ-65, (R)-2-(3-(3,5-bis(trifluoromethyl)phenyl)ureido)-N-(2,4-difluorophenyl)-2-(4-((1-(2-(2-(2-(2-oxo-2-(2-phenyl-1H-indol-3-yl)acetamido)ethoxy)ethoxy)ethyl)-1H-1,2,3-triazol-4-yl)methoxy)phenyl) acetamide]	mild reductions in p62/SQSTM1
O=C(Nc1cc(C(F)(F)F)cc(C(F)(F)F)c1)N[C@@H](C(=O)Nc1ccc(F)cc1F)c1ccc(OCc2cn(CCCCCCNC(=O)C(=O)c3c(-c4ccccc4)[nH]c4ccccc34)nn2)cc1 [NZ-66, (R)-2-(3-(3,5-bis(trifluoromethyl)phenyl)ureido)-N-(2,4-difluorophenyl)-2-(4-((1-(6-(2-oxo-2-(2-phenyl-1H-indol-3-yl)acetamido)hexyl)-1H-1,2,3-triazol-4-yl)methoxy)phenyl) acetamide]	mild reductions in p62/SQSTM1
